Values joined by “and” are separate entries in the source; they are usually repeats but may differ in a detail not shown here. Equal values may be shown once.
B1: MetMAb: Anti-c-met monovalent monoclonal antibody MetMAb (rhuOA5D5v2) (WO2007/063816) (antibody, chains of the INN, looked up, V domains shown)
VH: EVQLVESGGGLVQPGGSLRLSCAASGYTFTSYWLHWVRQAPGKGLEWVGMIDPSNSDTRFNPNFKDRFTISADTSKNTAYLQMNSLRAEDTAVYYCATYRSYVTPLDYWGQGTLVTVSS
VL: DIQMTQSPSSLSASVGDRVTITCKSSQSLLYTSSQKNYLAWYQQKPGKAPKLLIYWASTRESGVPSRFSGSGSGTDFTLTISSLQPEDFATYYCQQYYAYPWTFGQGTKVEIK
modifications: one-armed

Legend:
[1] = system: EBC-1 shMet-4.5 tumors; assay: Combination efficacy of erlotinib with c-met knockdown (Dox) in the EBC-1 shMet-4.5 NSCLC xenograft model; format: in vivo, nude mice (nu/nu); details: EBC-1 shMet-4.5 xenograft
Experimental: Test material. Erlotinib (Tarceva™) was provided by OSI Pharmaceuticals to the Formulations Department at Genentech and was weighed out along with a sufficient amount of vehicle (methylcellulose tween (MCT)). Materials were stored in a refrigerator set to maintain a temperature range of 4° C. to 8° C. Anti-c-met monovalent monoclonal antibody MetMAb (rhuOA5D5v2) (WO2007/063816) was provided by the Antibody Engineering Department at Genentech, Inc., in a clear liquid form. The EBC-1 cell line was obtained from Japanese Collection of Research Bioresources (JCRB). Species. Forty nude mice (nu/nu) were obtained from Charles River Laboratories (CRL) and were acclimatized for at least one week prior to being put on study. Animals were housed in ventilated caging systems in rooms with filters supplying High-Efficiency Particulate Air (HEPA). Only animals that appeared to be healthy and were free of obvious abnormalities were used for the study. Study design. EBC-1 cells were cultured in growth media that consisted of RPMI 1640 media (Invitrogen), 2 mM L-glutamine, and 10% fetal bovine serum. To prepare cells for inoculation into mice, cells were trypsinized, washed with ten milliliters of sterile 1× phosphate buffered saline (PBS). A subset of cells was counted by trypan blue exclusion and the remainder of cells was resuspended in 100 μl of sterile 1× PBS to a concentration of 5×10^7 cells per milliliter. Mice were inoculated subcutaneously in the right sub-scapular region with 5×10^6 EBC-1 cells. […] Mice in Group 1 (control group) were treated with 100 μL vehicle control, methylcellulose tween (MCT), every day (QD) via oral gavage (PO) and were switched to drinking water containing 5% sucrose. […] Dox and sucrose water was changed every 2-3 days. Erlotinib and MCT were dosed for 14 days, stopped for 6 days and then resumed for the remainder of the study (20 days). […] All studies and handling of mice complied with the Institutional Animal Care and Use Committee (IACUC) guidelines. [table] Tumor and Body Weight Measurement. […] Fowler Company, Inc.; Newton, Mass.). The following formula was used with Excel v11.2 (Microsoft Corporation; Redmond, Wash.) to calculate tumor volume: […] Efficacy Data Analysis. Tumor inhibition was plotted using KaleidaGraph 3.6 (Synergy Software; Reading, Pa.). Percent growth inhibition (% Inh) at Day 17 was calculated as follows: […] Tumor incidence (TI) was determined by the number of measurable tumors in each group at Day 17. […] Mean tumor volume and standard error of the mean (SEM) were calculated using JMP software, version 5.1.2 (SAS Institute; Cary, N.C.). Data analysis and generation of p-values using either Student's t-test or the Dunnett's t-test was also done using JMP software, version 5.1.2. […] Mice were then grouped into four treatment arms; […] Vehicles, Group 2: Doxycycline (Dox), Group 3: erlotinib (100 mg/kg), and Group 4: erlotinib+Dox (See Table 6).

[2] = system: NCI-H596 cell line; details: NCI-H596 cell line in vitro; cited from earlier work
[3] = target: T1, EGFR (Homo sapiens, UniProt P00533); assay: EGFR phosphorylation in NCI-H596 hu-HGF-Tg-SCID xenograft tumors (IP/immunoblot); format: in vivo, mouse xenograft; details: MetMAb 30 mg/kg 24 h, erlotinib 150 mg/kg 6 h prior to harvest, average of 5 animals
T1 construct: endogenous in cells; host or cells: NCI-H596 (human NSCLC) cells grown as xenograft tumours in hu-HGF-Tg-SCID mice; tumour lysate, IP with MI-12-1 and immunoblot
Experimental: Tumors were allowed to grow to 200-300 mm^3 prior to treatment. Dosing was performed as described in Table 8. Briefly, MetMAb (30 mg/kg) or MetMAb buffer was dosed at time zero hours (0 hr) and methylcellulose tween vehicle (MCT) or erlotinib (150 mg/kg) was dosed at time 18 hours (18 hr). Mice were euthanized and tumors and plasma collected at time 24 hours (24 hr). Tumors were snap frozen in liquid nitrogen and then kept at −70° C. until they were processed for immunoprecipitation and immunoblotting.
Immunoprecipitations and Immunoblotting: To process tumors for protein analysis, tumors were first homogenized using a glass dounce with lysis buffer (Cell Signaling Technology, Inc., Danvers, Mass.), supplemented with 1 mM PMSF, additional protease inhibitor cocktail, and phosphatase inhibitor cocktail I and II (Sigma, Inc., St. Louis, Mo.). Lysates were incubated on ice for one hour and then centrifuged at 14,000×g for five minutes and supernatants collected. Protein concentrations were determined using the BCA™ Protein Assay Kit (Pierce, Inc., Rockford, Ill.) and samples were immunoblotted. […] Samples were then analyzed by SDS-PAGE and immunoblotting. […] Immunoblots were imaged and phospho-protein levels were quantified and normalized to total protein levels (e.g. pEGFR over total EGFR) using an Odyssey imager (LI-COR Biosciences, Lincoln, Nebr.). […]

[4] = 10 mice per group, any day during the study

Row | Molecule | number of complete responses (CR; tumor regression of 100%) [1, 4] | number of partial responses (PR; tumor regression >50% but <100% of starting tumor volume) [1, 4] | reduction in tumor growth compared to the vehicle control (tumor inhibition) ([1]; nude mice, day 19, erlotinib 100 mg/kg PO QD, Dox in drinking water) [%] | HGF-driven proliferation [2] | pEGFR/total EGFR (phosphorylation of EGFR) [3]
1 | C#Cc1cccc(Nc2ncnc3cc(OCCOC)c(OCCOC)cc23)c1 [erlotinib, N-(3-ethynylphenyl)-6,7-bis(2-methoxyethoxy)-4-quinazolinamine] | no | no | −6 |  | 
2 | B1 |  |  |  | blocks HGF-driven proliferation | 62% (+/−21.6%) % of vehicle control and 62 (±21.6) % of vehicle control
